From ChEMBL document CHEMBL6103543, “Exploring the rhodanine universe: Design and synthesis of fluorescent rhodanine-based derivatives as anti-fibrillar and anti-oligomer agents against α-synuclein and 2N4R tau” (Bioorg Med Chem, 2024)
Calls of active or inactive are those of the source. No cut-off for these calls is given here.

Key:
[1] = target: T1, Alpha-synuclein (Homo sapiens, UniProt P37840); experiment: Inhibition of recombinant alpha-synuclein (unknown origin) fibril formation assessed as thioflavin T fluorescence intensity at 100 uM measured every 20 mins by Thioflavin T fluorescence assay (reference value: 100 %)
[2] = target: T1, Alpha-synuclein; experiment: Inhibition of alpha-synuclein (unknown origin) oligomer formation assessed as reduction in cross linking at 100 uM preincubated with compound followed by Ru(BPY3) addition and measured after 1 sec light irradiation by coomassie blue staining based PICUP assay
[3] = target: T1, Alpha-synuclein; experiment: Inhibition of alpha-synuclein (unknown origin) oligomer formation assessed as reduction in cross linking preincubated with compound followed by Ru(BPY3) addition and measured after 1 sec light irradiation by coomassie blue staining based PICUP assay; details: dose 50-200 µM
[4] = target: T1, Alpha-synuclein; experiment: Inhibition of recombinant alpha-synuclein (unknown origin) fibril formation assessed as decrease in aggregation at 100 uM incubated for 3 days by transmission electron microscopic analysis; details: time 3.0 day
[5] = target: Microtubule-associated protein tau (Homo sapiens) (UniProt P10636); experiment: Inhibition of Tau 2N4R monomer (unknown origin) fibril formation assessed as decrease in aggregation at 100 uM incubated for 5 days by transmission electron microscopic analysis; details: time 5.0 day
[6] = target: T1, Alpha-synuclein; experiment: (§1) Inhibition of alpha-syn inclusion formation in human M17D cells expressing doxycyclin-inducible alpha-syn-S3K::YFP inclusion-prone fusion protein assessed as reduction in inclusions at 5 uM treated with compound starting from 24 hrs post plating followed by doxycyclin addition at 48 hrs and measured 96 hrs post plating by Incucyte-based analysis; assay type: cell-based; details: time 72.0 hrs
[7] = (§2) Cytotoxicity against human M17D cells expressing doxycyclin-inducible alpha-syn-S3K::YFP inclusion-prone fusion protein assessed as reduction in cell confluency at 1.25 to 5 uM treated with compound starting from 24 hrs post plating followed by doxycyclin addition at 48 hrs and measured 96 hrs post plating by Incucyte-based analysis; assay type: toxicity; details: 72 h, dose 1.25-5 µM
[8] = target: T1, Alpha-synuclein; experiment: as §1, with “inclusions at 1.25 to 5 uM” for “inclusions at 5 uM”; assay type: cell-based; details: dose 1.25-5 µM, time 72.0 hrs
[9] = target: T1, Alpha-synuclein; experiment: Inhibition of recombinant alpha-synuclein (unknown origin) fibril formation assessed as decrease in thioflavin T fluorescence intensity measured every 20 mins by Thioflavin T fluorescence assay
[10] = target: Microtubule-associated protein tau (Homo sapiens) (UniProt P10636); experiment: Inhibition of Tau 0N4R (unknown origin) oligomer formation assessed as reduction in cross linking at 50 uM preincubated with compound followed by Ru(BPY3) addition and measured after 15 sec light irradiation by coomassie blue staining based PICUP assay relative to control
[11] = target: Microtubule-associated protein tau (Homo sapiens) (UniProt P10636); experiment: Inhibition of Tau 0N4R (unknown origin) oligomer formation assessed as reduction in cross linking at 100 uM preincubated with compound followed by Ru(BPY3) addition and measured after 15 sec light irradiation by coomassie blue staining based PICUP assay relative to control
[12] = target: Microtubule-associated protein tau (Homo sapiens) (UniProt P10636); experiment: Inhibition of Tau 0N4R (unknown origin) oligomer formation assessed as reduction in cross linking at 200 uM preincubated with compound followed by Ru(BPY3) addition and measured after 15 sec light irradiation by coomassie blue staining based PICUP assay relative to control
[13] = target: Microtubule-associated protein tau (Homo sapiens) (UniProt P10636); experiment: Inhibition of Tau 0N4R (unknown origin) oligomer formation assessed as reduction in cross linking at 300 uM preincubated with compound followed by Ru(BPY3) addition and measured after 15 sec light irradiation by coomassie blue staining based PICUP assay relative to control
[14] = target: T1, Alpha-synuclein; experiment: Inhibition of alpha-synuclein (unknown origin) oligomer formation at 100 uM incubated for 3 days by Western blot analysis; details: time 3.0 day
[15] = target: Microtubule-associated protein tau (Homo sapiens) (UniProt P10636); experiment: Binding affinity to recombinant human 2N4R fibril extracted from Escherichia coli assessed as decrease in fluorescence intensity at 1 uM incubated for 60 mins by fluorescence spectrophotometric analysis
[16] = target: T1, Alpha-synuclein; experiment: Binding affinity to alpha-synuclein fibril (unknown origin) assessed as decrease in fluorescence intensity at 1 uM incubated for 60 mins by fluorescence spectrophotometric analysis
[17] = target: Amyloid-beta precursor protein (Homo sapiens) (UniProt P05067); experiment: Inhibition of HFIP-induced recombinant amyloid beta (1 to 42) (unknown origin) aggregation assessed as decrease in thioflavin T fluorescence intensity at 100 uM measured every 20 mins by Thioflavin T fluorescence assay
[18] = target: Amyloid-beta precursor protein (Homo sapiens) (UniProt P05067); experiment: Inhibition of amyloid beta aggregation derived from alzhemier's disease patient brain assessed as reduction in plaques at 50 uM incubated for 5 days by transmission electron microscopic analysis; details: time 5.0 day
[19] = target: Amyloid-beta precursor protein (Homo sapiens) (UniProt P05067); experiment: Inhibition of amyloid beta aggregation derived from alzhemier's disease patient brain assessed as reduction in plaque density at 50 uM incubated for 5 days by transmission electron microscopic analysis; details: time 5.0 day
[20] = target: T1, Alpha-synuclein; experiment: as §1, with “1.25 to 40” for “5”; assay type: cell-based; details: dose 1.25-40 µM, time 72.0 hrs
[21] = as §2, with “to 40” for “to 5”; assay type: toxicity; details: 72 h, dose 1.25-40 µM
[22] = target: Microtubule-associated protein tau (Homo sapiens) (UniProt P10636); experiment: Inhibition of recombinant Tau 0N4R (unknown origin) aggregation assessed as decrease in fluorescence intensity at 100 uM measured every 5 mins by Thioflavin S fluorescence assay
[23] = target: Microtubule-associated protein tau (Homo sapiens) (UniProt P10636); experiment: Inhibition of recombinant Tau 2N4R (unknown origin) aggregation assessed as decrease in fluorescence intensity at 100 uM measured every 5 mins by Thioflavin S fluorescence assay
[24] = target: Microtubule-associated protein tau (Homo sapiens) (UniProt P10636); experiment: Inhibition of recombinant phosphorylated Tau 1N4R (unknown origin) aggregation assessed as decrease in fluorescence intensity at 100 uM measured every 5 mins by Thioflavin S fluorescence assay
[25] = target: T1, Alpha-synuclein; experiment: Inhibition of alpha-synuclein (unknown origin) oligomer formation assessed as reduction in cross linking at 50 uM preincubated with compound followed by Ru(BPY3) addition and measured after 1 sec light irradiation by coomassie blue staining based PICUP assay relative to control
[26] = target: T1, Alpha-synuclein; experiment: Inhibition of alpha-synuclein (unknown origin) oligomer formation assessed as reduction in cross linking at 100 uM preincubated with compound followed by Ru(BPY3) addition and measured after 1 sec light irradiation by coomassie blue staining based PICUP assay relative to control
[27] = target: Microtubule-associated protein tau (Homo sapiens) (UniProt P10636); experiment: Binding affinity to recombinant human 2N4R fibril extracted from Escherichia coli assessed as fluorescence quenching at 1 uM incubated for 40 mins by fluorescence spectrophotometric analysis
[28] = target: T1, Alpha-synuclein; experiment: Binding affinity to alpha-synuclein fibril (unknown origin) assessed as hypsochromic shift at 1 uM incubated for 40 mins by fluorescence spectrophotometric analysis
[29] = target: Microtubule-associated protein tau (Mus musculus) (UniProt P10637); experiment: Inhibition of Tau aggregation in mouse N2a cells at 15 uM incubated for 5 days by ThS staining based analysis relative to control; assay type: cell-based; details: time 5.0 day
Chain of Microtubule-associated protein tau (Mus musculus) (P10637 whole entry): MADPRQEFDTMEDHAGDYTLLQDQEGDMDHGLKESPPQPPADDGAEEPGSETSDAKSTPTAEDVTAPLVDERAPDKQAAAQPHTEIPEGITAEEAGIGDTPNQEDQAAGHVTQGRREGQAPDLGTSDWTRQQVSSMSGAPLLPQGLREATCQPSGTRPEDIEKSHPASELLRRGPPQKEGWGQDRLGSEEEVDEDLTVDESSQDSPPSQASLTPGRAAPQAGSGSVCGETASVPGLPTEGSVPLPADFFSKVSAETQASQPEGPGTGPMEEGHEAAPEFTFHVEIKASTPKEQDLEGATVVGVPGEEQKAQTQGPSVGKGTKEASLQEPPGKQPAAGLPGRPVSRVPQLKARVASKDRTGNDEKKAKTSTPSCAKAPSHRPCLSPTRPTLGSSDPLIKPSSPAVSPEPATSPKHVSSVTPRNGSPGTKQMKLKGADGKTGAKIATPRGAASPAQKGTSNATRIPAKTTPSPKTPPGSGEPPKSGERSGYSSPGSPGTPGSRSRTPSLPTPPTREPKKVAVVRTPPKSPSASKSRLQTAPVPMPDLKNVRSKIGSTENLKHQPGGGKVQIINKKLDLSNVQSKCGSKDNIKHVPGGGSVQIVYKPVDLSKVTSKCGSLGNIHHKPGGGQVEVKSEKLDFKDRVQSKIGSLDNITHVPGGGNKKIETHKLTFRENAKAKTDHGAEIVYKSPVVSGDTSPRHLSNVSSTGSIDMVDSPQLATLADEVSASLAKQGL

Chain of Amyloid-beta precursor protein (Homo sapiens) (P05067 whole entry): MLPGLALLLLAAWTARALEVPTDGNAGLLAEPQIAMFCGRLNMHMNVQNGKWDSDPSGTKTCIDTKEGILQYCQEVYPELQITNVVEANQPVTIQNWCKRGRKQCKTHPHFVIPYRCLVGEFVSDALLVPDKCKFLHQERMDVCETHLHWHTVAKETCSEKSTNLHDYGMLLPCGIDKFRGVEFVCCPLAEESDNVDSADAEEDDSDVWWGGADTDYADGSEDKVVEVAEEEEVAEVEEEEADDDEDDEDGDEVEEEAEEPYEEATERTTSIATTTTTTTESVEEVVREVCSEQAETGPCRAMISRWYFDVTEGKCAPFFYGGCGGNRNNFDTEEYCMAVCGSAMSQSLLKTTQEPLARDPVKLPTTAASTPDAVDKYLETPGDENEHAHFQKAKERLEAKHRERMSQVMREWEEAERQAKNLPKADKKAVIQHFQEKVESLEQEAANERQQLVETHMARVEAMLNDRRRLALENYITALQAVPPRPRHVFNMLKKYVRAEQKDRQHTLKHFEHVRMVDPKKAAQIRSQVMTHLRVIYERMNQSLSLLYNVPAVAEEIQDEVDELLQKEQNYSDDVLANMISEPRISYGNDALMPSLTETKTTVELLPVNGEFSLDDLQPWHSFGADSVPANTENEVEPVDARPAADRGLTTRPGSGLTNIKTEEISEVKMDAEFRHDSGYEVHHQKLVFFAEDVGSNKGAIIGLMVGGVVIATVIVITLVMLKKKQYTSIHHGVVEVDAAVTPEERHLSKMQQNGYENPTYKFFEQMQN
Chain of Microtubule-associated protein tau (Homo sapiens) (P10636 whole entry, the tested form may be a part): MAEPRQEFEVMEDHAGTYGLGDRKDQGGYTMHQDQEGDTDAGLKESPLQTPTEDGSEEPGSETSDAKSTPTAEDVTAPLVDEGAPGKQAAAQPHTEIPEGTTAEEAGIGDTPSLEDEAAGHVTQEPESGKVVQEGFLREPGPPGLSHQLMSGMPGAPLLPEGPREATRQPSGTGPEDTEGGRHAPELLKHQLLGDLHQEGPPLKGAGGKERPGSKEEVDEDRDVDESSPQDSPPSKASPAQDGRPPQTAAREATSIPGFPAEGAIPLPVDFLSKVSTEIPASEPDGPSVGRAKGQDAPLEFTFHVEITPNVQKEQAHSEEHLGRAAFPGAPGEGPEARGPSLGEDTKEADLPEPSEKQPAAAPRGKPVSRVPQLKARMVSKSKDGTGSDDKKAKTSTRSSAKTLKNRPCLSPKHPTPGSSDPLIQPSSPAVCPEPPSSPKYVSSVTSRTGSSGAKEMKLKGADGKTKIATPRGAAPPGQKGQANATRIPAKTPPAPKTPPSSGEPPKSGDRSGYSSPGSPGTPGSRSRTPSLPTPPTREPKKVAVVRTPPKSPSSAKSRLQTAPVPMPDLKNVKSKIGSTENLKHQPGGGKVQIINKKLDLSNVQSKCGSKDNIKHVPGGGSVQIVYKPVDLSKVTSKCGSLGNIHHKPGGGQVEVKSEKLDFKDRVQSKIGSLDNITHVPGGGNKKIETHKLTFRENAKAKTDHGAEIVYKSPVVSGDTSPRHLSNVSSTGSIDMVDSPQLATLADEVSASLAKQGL

Row | Compound | Flu intensity [1] [%] | inhibition [2] | further results
1 | O=C(O)CN1C(=O)/C(=C/c2cccc3cc[nH]c23)SC1=S | 15.1 | Active; Weak Inhibition Observed | –
2 | O=C(O)CCN1C(=O)/C(=C/c2coc3ccccc23)SC1=S | 31.8 | inactive | –
3 | O=C(O)CN1C(=O)/C(=C/c2ccc3ccccc3n2)SC1=S | 5.4 | inactive | –
4 | O=C(O)c1ccc(N2C(=O)/C(=C/c3c[nH]c4ccccc34)SC2=S)cc1 | 14.9 | Active | inhibition [3]: Dose-dependent-effect
5 | O=C(O)c1ccc(N2C(=O)/C(=C/c3nc4ccccc4s3)SC2=S)cc1O | 25 | inactive | –
6 | O=C(O)CCN1C(=O)/C(=C/c2cccc3cc[nH]c23)SC1=S | 14.7 | Active; Weak Inhibition Observed | –
7 | O=C(O)CCN1C(=O)/C(=C/c2cc3ccccc3[nH]2)SC1=S | 0.5 | Active | –
8 | O=C(O)CN1C(=O)/C(=C/c2c[nH]c3ccccc23)SC1=S | 10.1 | Active | inhibition [3]: Dose-dependent-effect
9 | O=C(O)c1ccc(N2C(=O)/C(=C/c3c[nH]c4ccccc34)SC2=S)cc1O | 8.9 | inactive | inhibition [4]: Active; Moderate Effect Observed; inhibition [5]: Active; Moderate Effect Observed; inhibition [6]: Active; Activity [7]: Non-toxic
10 | O=C(O)CCN1C(=O)/C(=C/c2csc3ccccc23)SC1=S | -0.05 | inactive | –
11 | COc1ccc2c(/C=C3\SC(=S)N(CCC(=O)O)C3=O)c[nH]c2c1 | > 100 | inactive | –
12 | O=C(O)CN1C(=O)/C(=C/c2coc3ccccc23)SC1=S | 24.7 | inactive | –
13 | O=C(O)c1ccc(N2C(=O)/C(=C/c3ccc4ccccc4n3)SC2=S)cc1O | > 100 | inactive | inhibition [8]: inactive; Activity [7]: Non-toxic
14 | O=C(O)c1ccc(N2C(=O)/C(=C/c3csc4ccccc34)SC2=S)cc1 | 70.4 | inactive | –
15 | O=C(O)CN1C(=O)/C(=C/c2csc3ccccc23)SC1=S | 3.2 | inactive | –
16 | O=C(O)c1ccc(N2C(=O)/C(=C/c3coc4ccccc34)SC2=S)cc1 | 15.3 | inactive | –
17 | O=C(O)CN1C(=O)/C(=C/c2cn(CCO)c3ccccc23)SC1=S | 27 | Active | –
18 | O=C(O)c1ccc(N2C(=O)/C(=C/c3csc4ccccc34)SC2=S)cc1O | 56.7 | inactive | –
19 | O=C(O)c1ccc(N2C(=O)/C(=C/c3coc4ccccc34)SC2=S)cc1O | 29.1 | inactive | –
20 | O=C(O)CN1C(=O)/C(=C/c2nc3ccccc3s2)SC1=S | 0.8 | inactive | inhibition [4]: Active; Powerful Inhibition Observed
21 | O=C(O)CCN1C(=O)/C(=C/c2c[nH]c3ccccc23)SC1=S | 1.9 | Active | EC50 [9]: 13.1 µM; inhibition [3]: Dose-dependent-effect; inhibition [10]: 13%; inhibition [11]: 13%; inhibition [12]: 25%; inhibition [13]: 78%; inhibition [14]: Active; Activity [15]: Active; Bathochromic Shift Of 10 Nm Observed; Activity [16]: Active; Bathochromic Shift Of 10 Nm Observed; inhibition [4]: Active; inhibition [5]: Active; inhibition [17]: Active; inhibition [18]: Active; inhibition [19]: Active; inhibition [20]: inactive; Activity [21]: Non-toxic
22 | O=C(O)CN1C(=O)/C(=C/c2cc3ccccc3[nH]2)SC1=S | 0.1 | Active | –
23 | O=C(O)c1ccc(N2C(=O)/C(=C/c3ccc4ccccc4n3)SC2=S)cc1 | 84.3 | inactive | –
24 | COc1ccc2c(/C=C3\SC(=S)N(CC(=O)O)C3=O)c[nH]c2c1 | 1.9 | Active | EC50 [9]: 8.66 µM; inhibition [22]: Active; inhibition [23]: Active; inhibition [24]: Active; inhibition [3]: Dose-dependent-effect; inhibition [25]: 81%; inhibition [26]: 100%; inhibition [10]: 18%; inhibition [11]: 50%; inhibition [12]: 70%; inhibition [13]: 92%; inhibition [14]: Active; Activity [27]: Active; Activity [28]: Active; Slight Hypsochromic Shift Observed Without Any Effect On Fluorescence Intensity; inhibition [17]: Active; inhibition [18]: Active; inhibition [20]: inactive; Activity [21]: Non-toxic
25 | O=C(O)CCN1C(=O)/C(=C/c2nc3ccccc3s2)SC1=S | 12.1 | inactive | inhibition [4]: Active; Powerful Inhibition Observed
26 | O=C(O)c1ccc(N2C(=O)/C(=C/c3nc4ccccc4s3)SC2=S)cc1 | 31.8 | inactive | –
27 | O=C1/C(=C/c2ccc(-c3cccc(Cl)c3)o2)SC(=S)N1Cc1nc2ccccc2[nH]1 | – | – | inhibition [29]: 70%
28 | O=C(O)CCN1C(=O)/C(=C/c2ccc3ccccc3n2)SC1=S | 25 | inactive | –
